US20210403485A1, “PYRAZOLOPYRIMIDINE DERIVATIVE AS SELECTIVE TRK INHIBITOR” (SHANDONG LUYE PHARMACEUTICAL CO., LTD., priority 2018, published 2021)

What was measured:
TrkA-G667C = target: T1, TrkA-G667C (Homo sapiens, UniProt P04629, G667C); assay: Kinase inhibitory activity (33P-ATP, filtration-binding method, Reaction Biology Corp.); format: biochemical; settings: read-out: Half maximal inhibitory concentration IC50 for kinases, TrkA-G667C
T1 construct: purchased Reaction Biology Corp
Description: (§1) The mixture was incubated at room temperature for 20 minutes, added with ^33P-ATP at a certain concentration to start the reaction, and then incubated at room temperature for 120 minutes. Finally, the radioactivity of the reactant was detected by the filtration-binding method. The final kinase activity was expressed as the ratio of the remaining kinase activity in the test sample to the kinase activity of the DMSO control. The dose-response curves were fitted and IC50 values were calculated by GraphPad software.

ALK = target: T2, ALK (Homo sapiens, UniProt Q9UM73); assay: as above; format: biochemical; settings: read-out: Half maximal inhibitory concentration IC50 for kinases, ALK
T2 construct: purchased Reaction Biology Corp
Description: as §1

Ros1 = target: T3, Ros1 (Homo sapiens, UniProt P08922); assay: as above; format: biochemical; settings: read-out: Half maximal inhibitory concentration IC50 for kinases, Ros1
T3 construct: purchased Reaction Biology Corp
Description: as §1

TrkA-G595R = target: T4, TrkA-G595R (Homo sapiens, UniProt P04629, G595R); assay: as above; format: biochemical; settings: read-out: Half maximal inhibitory concentration IC50 for kinases, TrkA-G595R
T4 construct: purchased Reaction Biology Corp
Description: as §1

TrkA = target: T5, TrkA (Homo sapiens, UniProt P04629); assay: as above; format: biochemical; settings: read-out: Half maximal inhibitory concentration IC50 for kinases, TrkA
T5 construct: purchased Reaction Biology Corp
Description: as §1

TrkC = target: T6, TrkC (Homo sapiens, UniProt Q16288); assay: as above; format: biochemical; settings: read-out: Half maximal inhibitory concentration IC50 for kinases, TrkC
T6 construct: purchased Reaction Biology Corp
Description: as §1

[1] = Pharmacokinetic test of compounds in rats (plasma, LC/MS/MS); format: in vivo, male SD rats
Description: Experimental purpose: male SD rats aged 7-9 weeks were selected as test animals, and the drug concentrations of the compounds in plasma at different time points after single intravenous injection (IV) and intragastric administration (PO) of the compounds were measured by an LC/MS/MS method, so that the pharmacokinetic behavior of the compounds disclosed herein in rats was studied, and the pharmacokinetic characteristic of the compounds was evaluated.
(§2) Drug preparation: the compounds were all prepared into clear solution by taking 5% DMSO+10% solutol+85% water as vehicle, and were used for administration in IV and PO groups. The dose of each compound administered was: IV, 3 mg/kg; PO, 10 mg/kg.

BaF3 ETV6-NTRK3-G623R = target: T7, BaF3 ETV6-NTRK3-G623R (Homo sapiens, UniProt Q16288, G623R, cells depend on it); assay: Inhibitory activity against cell proliferation (CellTiter-Glo, 72 hours); format: cell-based; settings: read-out: Half maximal inhibitory concentration IC50 of cells, BaF3 ETV6-NTRK3-G623R
T7 construct: fused on or other part: N-terminal part of ETV6 (TEL) as fusion partner (part of the key); P41212 (Transcription factor ETV6)
Description: (§3) Adenosine Triphosphate (ATP) is an energy carrier commonly used in various life activities in nature, and is the minimum unit for energy storage and transfer. The CellTiter-Glo™ cell viability assay kit uses luciferase as an assay agent, which requires the involvement of ATP in luminescence. The CellTiter-Glo™ reagent is added into cell culture medium to measure the luminescence value. The luminescence signal is directly proportional to the amount of ATP in the system, and the ATP is positively correlated with the number of viable cells. Therefore, the proliferation of cells can be detected by detecting the ATP content using the CellTiter-Glo kit. In this test, the cell lines used are Ba/F3 LMNA-NTRK1-WT, Ba/F3 LMNA-NTRK1-F589L, BaF3 LMNA-NTRK1-G595R, BaF3 LMNA-NTRK1-G667A, BaF3 ETV6-NTRK3-WT, BaF3 ETV6-NTRK3-G623R, and Ba/F3 SLC34A2-ROS1-WT stable cell strains, 5000 cells/well.
(§4) a) Cells in the logarithmic growth phase were collected and counted using a […]. The cell viability was detected by the trypan blue exclusion method, and the cell viability was kept over 90%.
(§5) b) The cell concentration was adjusted; 90 μL of the cell suspension was added to a 96-well plate.
c) Cells in the 96-well plate were incubated overnight at 37° C. with 5% CO2 and 95% humidity.
(§6) a) A 10-fold compound solution was prepared, with the highest concentration being 10 μM (a total of 9 concentrations, 3-fold dilution). 10 μL of compound solution was added to each well of a 96-well plate inoculated with cells, and three duplicate wells were set for each compound concentration.
b) The cells in the 96-well plate added with compound were incubated for 72 hours at 37° C. with 5% CO2 and 95% humidity, followed by the CTG (CellTiter-Glo) analysis.
(§7) a) The CTG reagent was thawed and the cell plate was equilibrated to room temperature for 30 minutes.
(§8) b) An equal volume of CTG solution was added to each well.
(§9) c) The plate was shaken on an orbital shaker for 5 minutes to lyse the cells.
(§10) d) The cell plate was placed at room temperature for 20 minutes to stabilize the luminescence signal.
(§11) e) The luminescence value was read.
(§12) The data were analyzed using GraphPad Prism 5.0 software, fitted with nonlinear S-curve regression to give dose-response curves, and IC50 values were calculated therefrom.

[2] = Pharmacokinetic test of compounds in mice (plasma, LC/MS/MS); format: in vivo, male CD-1 mice
Description: Experimental purpose: male CD-1 mice aged 7-9 weeks were selected as test animals, and the drug concentrations of the compounds in plasma at different time points after single intravenous injection (IV) and intragastric administration (PO) of the compounds were measured by an LC/MS/MS method, so that the pharmacokinetic behavior of the compounds disclosed herein in mice was studied, and the pharmacokinetic characteristic of the compounds was evaluated.
as §2

Ba/F3 LMNA-NTRK1-WT = target: T8, Ba/F3 LMNA-NTRK1-WT (Homo sapiens, UniProt P04629); assay: Inhibitory activity against cell proliferation (CellTiter-Glo, 72 hours); format: cell-based; settings: read-out: Half maximal inhibitory concentration IC50 of cells, Ba/F3 LMNA-NTRK1-WT
T8 construct: fused on or other part: N-terminal part of LMNA as fusion partner (part of the key); P02545 (Prelamin-A/C)
Description: as §3, with “kit.” for “kit. In this test, the cell lines used are Ba/F3 LMNA-NTRK1-WT, Ba/F3 LMNA-NTRK1-F589L, BaF3 LMNA-NTRK1-G595R, BaF3 LMNA-NTRK1-G667A, BaF3 ETV6-NTRK3-WT, BaF3 ETV6-NTRK3-G623R, and Ba/F3 SLC34A2-ROS1-WT stable cell strains, 5000 cells/well.”
as §4, §5, §6, §7, §8, §9, §10, §11, §12

BaF3 LMNA-NTRK1-G595R = target: T9, BaF3 LMNA-NTRK1-G595R (Homo sapiens, UniProt P04629, G595R, cells depend on it); assay: as above; format: cell-based; settings: read-out: Half maximal inhibitory concentration IC50 of cells, BaF3 LMNA-NTRK1-G595R
T9 construct: fused on or other part: N-terminal part of LMNA as fusion partner (part of the key); P02545 (Prelamin-A/C)
Description: as §3, with “kit.” for “kit. In this test, the cell lines used are Ba/F3 LMNA-NTRK1-WT, Ba/F3 LMNA-NTRK1-F589L, BaF3 LMNA-NTRK1-G595R, BaF3 LMNA-NTRK1-G667A, BaF3 ETV6-NTRK3-WT, BaF3 ETV6-NTRK3-G623R, and Ba/F3 SLC34A2-ROS1-WT stable cell strains, 5000 cells/well.”
as §4, §5, §6, §7, §8, §9, §10, §11, §12

BaF3 LMNA-NTRK1-G667A = target: T10, BaF3 LMNA-NTRK1-G667A (Homo sapiens, UniProt P04629, G667A, cells depend on it); assay: as above; format: cell-based; settings: read-out: Half maximal inhibitory concentration IC50 of cells, BaF3 LMNA-NTRK1-G667A
T10 construct: fused on or other part: N-terminal part of LMNA as fusion partner (part of the key); P02545 (Prelamin-A/C)
Description: as §3, with “kit.” for “kit. In this test, the cell lines used are Ba/F3 LMNA-NTRK1-WT, Ba/F3 LMNA-NTRK1-F589L, BaF3 LMNA-NTRK1-G595R, BaF3 LMNA-NTRK1-G667A, BaF3 ETV6-NTRK3-WT, BaF3 ETV6-NTRK3-G623R, and Ba/F3 SLC34A2-ROS1-WT stable cell strains, 5000 cells/well.”
as §4, §5, §6, §7, §8, §9, §10, §11, §12

BaF3 ETV6-NTRK3-WT = target: T11, BaF3 ETV6-NTRK3-WT (Homo sapiens, UniProt Q16288); assay: as above; format: cell-based; settings: read-out: Half maximal inhibitory concentration IC50 of cells, BaF3 ETV6-NTRK3-WT
T11 construct: fused on or other part: N-terminal part of ETV6 (TEL) as fusion partner (part of the key); P41212 (Transcription factor ETV6)
Description: as §3, with “kit.” for “kit. In this test, the cell lines used are Ba/F3 LMNA-NTRK1-WT, Ba/F3 LMNA-NTRK1-F589L, BaF3 LMNA-NTRK1-G595R, BaF3 LMNA-NTRK1-G667A, BaF3 ETV6-NTRK3-WT, BaF3 ETV6-NTRK3-G623R, and Ba/F3 SLC34A2-ROS1-WT stable cell strains, 5000 cells/well.”
as §4, §5, §6, §7, §8, §9, §10, §11, §12

Ba/F3 LMNA-NTRK1-F589L = target: T12, Ba/F3 LMNA-NTRK1-F589L (Homo sapiens, UniProt P04629, F589L, cells depend on it); assay: as above; format: cell-based; settings: read-out: Half maximal inhibitory concentration IC50 of cells, Ba/F3 LMNA-NTRK1-F589L
T12 construct: fused on or other part: N-terminal part of LMNA as fusion partner (part of the key); P02545 (Prelamin-A/C)
Description: as §3, with “kit.” for “kit. In this test, the cell lines used are Ba/F3 LMNA-NTRK1-WT, Ba/F3 LMNA-NTRK1-F589L, BaF3 LMNA-NTRK1-G595R, BaF3 LMNA-NTRK1-G667A, BaF3 ETV6-NTRK3-WT, BaF3 ETV6-NTRK3-G623R, and Ba/F3 SLC34A2-ROS1-WT stable cell strains, 5000 cells/well.”
as §4, §5, §6, §7, §8, §9, §10, §11, §12

[3] = PO, 10 mg/kg, read-out: Peak concentration Cmax

T10 sequence (P04629 whole entry G667A, the tested form may be a part): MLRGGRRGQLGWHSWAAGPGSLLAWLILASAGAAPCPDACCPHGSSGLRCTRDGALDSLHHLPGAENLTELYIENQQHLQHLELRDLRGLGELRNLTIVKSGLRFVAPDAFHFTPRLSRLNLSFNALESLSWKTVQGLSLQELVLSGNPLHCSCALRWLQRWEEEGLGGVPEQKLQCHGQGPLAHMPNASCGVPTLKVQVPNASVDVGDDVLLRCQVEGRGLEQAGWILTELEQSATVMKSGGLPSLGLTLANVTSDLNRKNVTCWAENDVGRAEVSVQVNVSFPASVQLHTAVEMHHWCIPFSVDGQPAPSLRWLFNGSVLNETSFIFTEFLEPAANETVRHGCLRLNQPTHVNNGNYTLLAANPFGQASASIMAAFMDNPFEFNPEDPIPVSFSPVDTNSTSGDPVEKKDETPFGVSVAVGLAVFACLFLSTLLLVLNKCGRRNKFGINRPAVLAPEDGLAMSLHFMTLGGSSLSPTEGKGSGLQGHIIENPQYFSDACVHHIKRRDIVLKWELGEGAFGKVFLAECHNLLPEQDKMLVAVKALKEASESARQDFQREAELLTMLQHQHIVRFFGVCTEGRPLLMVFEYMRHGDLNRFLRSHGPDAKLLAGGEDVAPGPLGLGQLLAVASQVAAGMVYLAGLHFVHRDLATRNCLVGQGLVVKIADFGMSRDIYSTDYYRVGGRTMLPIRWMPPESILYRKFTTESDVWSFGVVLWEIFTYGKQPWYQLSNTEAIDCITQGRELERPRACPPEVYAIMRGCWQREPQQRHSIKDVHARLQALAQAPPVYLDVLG
T9 sequence (P04629 whole entry G595R, the tested form may be a part): as the sequence (P04629 whole entry G667A, the tested form may be a part) above, with G595R, A667G counted along it
T4 sequence (P04629 33-796 G595R): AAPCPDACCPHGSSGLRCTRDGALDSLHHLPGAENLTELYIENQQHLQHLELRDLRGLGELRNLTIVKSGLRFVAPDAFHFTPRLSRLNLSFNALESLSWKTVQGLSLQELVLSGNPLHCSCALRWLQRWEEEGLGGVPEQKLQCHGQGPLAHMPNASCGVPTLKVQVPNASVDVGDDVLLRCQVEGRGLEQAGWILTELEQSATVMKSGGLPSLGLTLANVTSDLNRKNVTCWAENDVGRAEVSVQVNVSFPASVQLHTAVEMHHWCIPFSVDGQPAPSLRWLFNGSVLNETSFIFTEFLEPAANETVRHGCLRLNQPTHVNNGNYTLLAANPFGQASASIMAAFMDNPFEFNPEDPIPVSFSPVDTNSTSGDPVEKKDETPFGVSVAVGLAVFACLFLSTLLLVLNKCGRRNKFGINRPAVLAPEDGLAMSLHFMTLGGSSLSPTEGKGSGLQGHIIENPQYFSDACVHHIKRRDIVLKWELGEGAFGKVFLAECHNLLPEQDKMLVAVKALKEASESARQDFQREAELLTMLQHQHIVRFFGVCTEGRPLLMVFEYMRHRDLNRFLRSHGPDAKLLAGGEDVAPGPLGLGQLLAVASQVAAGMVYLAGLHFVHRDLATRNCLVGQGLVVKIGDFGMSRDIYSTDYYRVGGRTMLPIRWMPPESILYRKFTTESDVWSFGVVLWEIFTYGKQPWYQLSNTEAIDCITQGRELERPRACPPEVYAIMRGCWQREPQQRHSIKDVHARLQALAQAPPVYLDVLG
T3 sequence (P08922 28-2347): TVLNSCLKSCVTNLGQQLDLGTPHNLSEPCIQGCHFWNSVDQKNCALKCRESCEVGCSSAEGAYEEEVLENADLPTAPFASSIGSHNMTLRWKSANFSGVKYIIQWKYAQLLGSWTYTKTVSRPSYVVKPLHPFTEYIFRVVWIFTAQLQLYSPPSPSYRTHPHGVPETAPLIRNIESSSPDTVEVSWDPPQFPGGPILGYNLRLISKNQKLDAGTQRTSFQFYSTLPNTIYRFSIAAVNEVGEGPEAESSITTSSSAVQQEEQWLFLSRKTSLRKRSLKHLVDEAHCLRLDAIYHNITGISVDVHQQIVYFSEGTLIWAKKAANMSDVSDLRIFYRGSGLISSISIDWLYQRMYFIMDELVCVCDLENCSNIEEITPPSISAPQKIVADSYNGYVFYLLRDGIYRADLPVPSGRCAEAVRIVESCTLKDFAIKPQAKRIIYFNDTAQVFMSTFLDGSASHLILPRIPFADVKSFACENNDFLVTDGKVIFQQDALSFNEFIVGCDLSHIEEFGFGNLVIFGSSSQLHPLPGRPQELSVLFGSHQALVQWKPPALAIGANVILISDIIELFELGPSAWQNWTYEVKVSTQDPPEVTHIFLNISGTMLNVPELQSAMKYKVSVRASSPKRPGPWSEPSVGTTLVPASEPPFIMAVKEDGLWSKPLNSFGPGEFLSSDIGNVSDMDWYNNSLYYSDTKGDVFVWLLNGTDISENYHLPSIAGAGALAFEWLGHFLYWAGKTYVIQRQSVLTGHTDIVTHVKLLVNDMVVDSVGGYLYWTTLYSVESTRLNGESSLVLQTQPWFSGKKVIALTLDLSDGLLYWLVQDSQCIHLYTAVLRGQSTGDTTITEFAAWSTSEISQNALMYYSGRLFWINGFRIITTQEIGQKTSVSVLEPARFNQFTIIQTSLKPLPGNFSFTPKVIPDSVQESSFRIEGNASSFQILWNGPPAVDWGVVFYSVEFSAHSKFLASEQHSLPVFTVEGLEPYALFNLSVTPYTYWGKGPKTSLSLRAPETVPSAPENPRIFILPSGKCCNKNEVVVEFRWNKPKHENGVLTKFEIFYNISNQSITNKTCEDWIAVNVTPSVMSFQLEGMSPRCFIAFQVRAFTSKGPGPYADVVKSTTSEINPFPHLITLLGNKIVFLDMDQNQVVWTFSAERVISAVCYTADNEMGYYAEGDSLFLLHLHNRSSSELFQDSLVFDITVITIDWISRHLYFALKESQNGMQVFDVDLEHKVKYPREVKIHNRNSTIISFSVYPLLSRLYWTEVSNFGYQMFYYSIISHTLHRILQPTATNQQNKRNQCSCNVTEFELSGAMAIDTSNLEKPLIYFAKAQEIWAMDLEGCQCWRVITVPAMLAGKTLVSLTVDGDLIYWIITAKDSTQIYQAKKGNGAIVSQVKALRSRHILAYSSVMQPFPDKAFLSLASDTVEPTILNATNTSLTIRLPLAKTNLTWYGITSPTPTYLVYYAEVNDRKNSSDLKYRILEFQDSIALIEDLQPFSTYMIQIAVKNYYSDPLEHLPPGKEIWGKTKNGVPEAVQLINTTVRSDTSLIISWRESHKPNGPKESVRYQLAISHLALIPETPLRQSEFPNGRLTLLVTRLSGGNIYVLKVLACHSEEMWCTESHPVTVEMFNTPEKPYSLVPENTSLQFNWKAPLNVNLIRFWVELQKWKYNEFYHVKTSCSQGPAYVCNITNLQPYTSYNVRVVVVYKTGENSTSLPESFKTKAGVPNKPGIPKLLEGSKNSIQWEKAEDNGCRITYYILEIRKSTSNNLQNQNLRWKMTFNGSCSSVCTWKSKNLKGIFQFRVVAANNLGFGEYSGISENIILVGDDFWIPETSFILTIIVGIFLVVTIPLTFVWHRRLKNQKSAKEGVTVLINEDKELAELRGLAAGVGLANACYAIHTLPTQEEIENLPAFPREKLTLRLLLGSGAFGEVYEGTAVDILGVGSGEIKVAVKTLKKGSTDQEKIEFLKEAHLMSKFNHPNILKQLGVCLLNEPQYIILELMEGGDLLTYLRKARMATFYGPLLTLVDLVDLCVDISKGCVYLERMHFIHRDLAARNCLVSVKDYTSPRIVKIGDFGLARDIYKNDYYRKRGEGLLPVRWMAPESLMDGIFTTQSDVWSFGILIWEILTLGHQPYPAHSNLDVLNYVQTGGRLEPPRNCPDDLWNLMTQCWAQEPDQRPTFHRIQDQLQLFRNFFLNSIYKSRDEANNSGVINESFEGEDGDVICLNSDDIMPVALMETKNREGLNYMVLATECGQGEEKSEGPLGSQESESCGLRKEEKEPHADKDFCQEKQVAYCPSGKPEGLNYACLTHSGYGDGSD
T1 sequence (P04629 33-796 G667C): as the sequence (P04629 33-796 G595R) above, with R563G, G635C counted along it
T8 sequence (P04629 whole entry, stated change not applied, the tested form may be a part): as the sequence (P04629 whole entry G667A, the tested form may be a part) above, with A667G counted along it
T5 sequence (P04629 33-796): as the sequence (P04629 33-796 G595R) above, with R563G counted along it
T6 sequence (Q16288 32-839): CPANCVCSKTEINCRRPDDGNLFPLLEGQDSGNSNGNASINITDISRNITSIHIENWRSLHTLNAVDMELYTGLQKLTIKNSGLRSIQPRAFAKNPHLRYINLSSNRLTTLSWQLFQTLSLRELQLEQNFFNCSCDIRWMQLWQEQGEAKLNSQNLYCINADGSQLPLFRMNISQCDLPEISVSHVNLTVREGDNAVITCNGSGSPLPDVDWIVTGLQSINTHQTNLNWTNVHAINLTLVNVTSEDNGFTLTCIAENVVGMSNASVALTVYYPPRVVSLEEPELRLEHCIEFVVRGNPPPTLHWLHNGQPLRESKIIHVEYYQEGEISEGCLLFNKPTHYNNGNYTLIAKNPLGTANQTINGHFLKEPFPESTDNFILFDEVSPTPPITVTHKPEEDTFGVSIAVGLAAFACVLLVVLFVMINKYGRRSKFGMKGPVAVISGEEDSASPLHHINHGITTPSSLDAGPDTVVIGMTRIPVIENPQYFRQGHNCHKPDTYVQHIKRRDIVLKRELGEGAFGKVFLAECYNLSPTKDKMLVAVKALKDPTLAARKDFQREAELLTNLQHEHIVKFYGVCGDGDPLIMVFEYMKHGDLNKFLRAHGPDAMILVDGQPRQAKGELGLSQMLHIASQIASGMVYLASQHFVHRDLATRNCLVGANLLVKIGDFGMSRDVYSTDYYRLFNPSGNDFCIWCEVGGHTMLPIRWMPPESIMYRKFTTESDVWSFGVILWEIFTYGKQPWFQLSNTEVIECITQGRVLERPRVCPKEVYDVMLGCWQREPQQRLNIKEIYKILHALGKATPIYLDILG
T12 sequence (P04629 whole entry F589L, the tested form may be a part): as the sequence (P04629 whole entry G667A, the tested form may be a part) above, with F589L, A667G counted along it

C[C@H]1CNC(=O)c2cnn3ccc(nc23)N2CCOC[C@@H]2c2cc(F)cnc2O1 [WX004B]
IC50 (TrkA-G667C): 18.2 nM | IC50 (ALK): 134 nM | IC50 (Ros1): 8.1 nM | IC50 (TrkA-G595R): 2.7 nM | IC50 (TrkA): 2.7 nM | IC50 (TrkC): 0.3 nM | Apparent clearance Cl ([1]; IV, 3 mg/kg): 30.9 mL/min/kg | Apparent volume of distribution Vd ([1]; IV, 3 mg/kg): 1.4 L/kg | Area under the curve AUC0-last ([1]; IV, 3 mg/kg): 4.076 µM·h | Half-life T1/2 ([1]; IV, 3 mg/kg): 36 min | Area under the curve AUC0-last ([1]; PO, 10 mg/kg): 4.715 µM·h | Bioavailability F % ([1]; PO, 10 mg/kg): 35% | Time to peak Tmax ([1]; PO, 10 mg/kg): 48 min | Cmax [1, 3]: 1.77 µM | GI50 (BaF3 ETV6-NTRK3-G623R): 3.2 nM | Apparent clearance Cl ([2]; IV, 3 mg/kg): 8.14 mL/min/kg | Apparent volume of distribution Vd ([2]; IV, 3 mg/kg): 0.60 L/kg | Area under the curve AUC0-last ([2]; IV, 3 mg/kg): 15.393 µM·h | Half-life T1/2 ([2]; IV, 3 mg/kg): 63 min | Area under the curve AUC0-last ([2]; PO, 10 mg/kg): 37.294 µM·h | Bioavailability F % ([2]; PO, 10 mg/kg): 73% | Time to peak Tmax ([2]; PO, 10 mg/kg): 30 min | Cmax [2, 3]: 11.1 µM | GI50 (Ba/F3 LMNA-NTRK1-WT): 0.8 nM | GI50 (BaF3 LMNA-NTRK1-G595R): 1.2 nM | GI50 (BaF3 LMNA-NTRK1-G667A): 3.9 nM | GI50 (BaF3 ETV6-NTRK3-WT): 1.5 nM | GI50 (Ba/F3 LMNA-NTRK1-F589L): 37.4 nM
